In paper PMC11078216, “Discovery of potent and selective activity-based probes (ABPs) for the deubiquitinating enzyme USP30” (RSC Chemical Biology, 2024):
One block for each molecule: values may come before it.

Target: T1, ALDH1B1 (Homo sapiens, UniProt P30837)
T1 construct: endogenous in cells; host or cells: HEK293T
T1 sequence (P30837 18-517): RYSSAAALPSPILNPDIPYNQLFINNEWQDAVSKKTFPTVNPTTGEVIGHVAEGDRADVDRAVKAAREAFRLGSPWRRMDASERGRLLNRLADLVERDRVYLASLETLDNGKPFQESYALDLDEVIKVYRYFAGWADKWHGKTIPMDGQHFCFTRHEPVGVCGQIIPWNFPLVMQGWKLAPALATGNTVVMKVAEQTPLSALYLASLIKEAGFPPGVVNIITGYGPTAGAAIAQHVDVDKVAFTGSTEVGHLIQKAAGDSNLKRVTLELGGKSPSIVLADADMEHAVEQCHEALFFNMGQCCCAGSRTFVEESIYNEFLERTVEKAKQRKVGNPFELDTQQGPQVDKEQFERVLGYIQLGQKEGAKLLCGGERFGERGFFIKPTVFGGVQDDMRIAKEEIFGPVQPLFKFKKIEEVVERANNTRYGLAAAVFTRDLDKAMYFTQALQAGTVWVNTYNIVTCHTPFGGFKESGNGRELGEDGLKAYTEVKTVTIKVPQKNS
Assay: ABPP chemical proteomics (LC-MS/MS) in HEK293T cells
Assay type: cell-based
Method in brief: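 Cellular target engagement was assessed by probe competition. Labelled HEK293T lysates (≥400 µg protein) underwent copper-catalysed click ligation for 1 h at room temperature. Biotinylated proteins were pulled down on NeutrAvidin agarose in 0.2% SDS/HEPES pH 8.0 for 3 h before LC-MS/MS quantification.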

SMILES: N#CN1CC[C@@H](NC(=O)c2cc(-c3ccccc3Oc3ccc(N=[N+]=[N-])cc3)n[nH]2)C1 [IMP-2586]
Difference (log2 fold change of enrichment) (IMP-2586 labelling vs DMSO, 30 nM, 10 min, HEK293T (Table S4, Fig.5c)): 2.25

SMILES: C#Cc1cccc(-c2cc(NC(=O)CC3CCN(C#N)C3)on2)c1 (stereo not shown) [IMP-2587]
Difference (log2 fold change of enrichment) (IMP-2587 labelling vs DMSO, 30 nM, 10 min, HEK293T (Table S2, Fig.5a)): 3.53

Difference (log2 fold change of enrichment) (compound 1 out-competition with IMP-2587 labelling, HEK293T (Table S3, Fig.5b)): -3.81
SMILES: N#CN1CC[C@H](CC(=O)Nc2cc(-c3cccc(Cl)c3)no2)C1 [compound 1, reference compound]

Difference (log2 fold change of enrichment) (compound 3 out-competition with IMP-2586 labelling, HEK293T (Table S5, Fig.5d)): -1.78
SMILES: N#CN1CC[C@@H](NC(=O)c2cc(-c3ccccc3Oc3ccccc3)n[nH]2)C1 [compound 3, reference compound]
